Data taken from patent EP4741420A1, “PHARMACEUTICAL COMPOSITION FOR PREVENTING OR TREATING OBESITY COMPRISING GLP ANALOGUE AS ACTIVE INGREDIENT” (priority 2023, dated 2025).
Peptide text beside a SMILES is read from it.

How the values were obtained:
[1] = target: T1, GLP-2 (Homo sapiens, UniProt O95838); experiment: GLP-2 activity, cell-based cAMP assay (same method as Example 2); conditions: Example 5, relative to GLP-2
T1 sequence (O95838 1-553): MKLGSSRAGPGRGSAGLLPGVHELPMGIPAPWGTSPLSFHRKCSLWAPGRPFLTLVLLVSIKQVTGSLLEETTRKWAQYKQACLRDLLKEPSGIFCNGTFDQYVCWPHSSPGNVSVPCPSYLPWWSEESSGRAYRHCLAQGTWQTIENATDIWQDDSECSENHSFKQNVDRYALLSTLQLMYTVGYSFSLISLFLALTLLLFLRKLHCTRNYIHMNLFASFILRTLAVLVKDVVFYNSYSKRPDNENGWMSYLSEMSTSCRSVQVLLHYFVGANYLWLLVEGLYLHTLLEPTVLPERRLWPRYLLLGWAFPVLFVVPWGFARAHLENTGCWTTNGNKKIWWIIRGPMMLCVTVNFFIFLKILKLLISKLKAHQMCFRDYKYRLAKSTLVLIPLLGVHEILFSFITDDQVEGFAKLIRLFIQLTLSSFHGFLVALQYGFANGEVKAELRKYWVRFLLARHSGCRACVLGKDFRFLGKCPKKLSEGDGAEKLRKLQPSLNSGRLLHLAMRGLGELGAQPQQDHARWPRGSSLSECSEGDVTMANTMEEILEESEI

[2] = system: diet-induced obesity (DIO) mouse model; experiment: DIO mouse model QD: liver damage markers AST/ALT (Example 8-1); type: in vivo; conditions: serum, DIO mice, QD (once daily), 45 nmol/kg/dose
Procedure: The anti-obesity effect in the liver was analyzed for the same materials used in Example 7. Specifically, liver damage marker (AST/ALT) analysis, liver weight/fatty liver examination, hepatic triglyceride measurement, and liver ORO staining analysis were performed.
To analyze the liver damage markers, AST/ALT, blood biochemical analysis was performed on the blood of a material-treated obese mouse model. Specifically, the collected blood was divided into two tubes, approximately 200 µL of the blood was put into each EDTA tube, and the remaining volume was injected into a vacutainer tube containing a coagulant. Blood collected in an EDTA tube was used to measure glycated hemoglobin on the same day, while the blood collected in the vacutainer tube was left at room temperature for 15 to 20 minutes to coagulate, and then centrifuged for 10 minutes to obtain serum. The serum was used for blood biochemical analysis.

[3] = system: diet-induced obesity (DIO) mouse model; experiment: DIO mouse model QD: liver weight and steatosis score, H&E (Example 8-2); type: in vivo, mice; conditions: QD (once daily), 45 nmol/kg/dose
Excerpt: To examine liver weight and steatosis, the liver weight elevated by obesity induction and the degree of steatosis after liver H&E staining were scored from grades 0 to 3 to compare the drug's hepatic efficacy. First, after the test was completed, the animal's liver was excised on the day of necropsy to confirm the liver efficacy of the drug. After measuring the weight of the excised liver, the intermediate lobes were frozen in liquid nitrogen for the subsequent measurement of triglycerides. The remaining portion of the liver was fixed in 10% neutral buffered formalin and subjected to histopathological examination.
For H&E analysis, the liver tissue fixed in the buffered formalin was put into an automatic tissue processor, embedded in paraffin, and then prepared into a paraffin block. Subsequently, the paraffin block was prepared into a tissue section, which was stained with hematoxylin & eosin (H&E). The stained tissue slide was observed using an optical microscope (BX61, Olympus, Japan) and photographed (DP80, Olympus, Japan).
Histopathological quantification of liver tissue was performed by scoring the degree of steatosis on H&E-stained slides from grades 0 to 3. The contents corresponding to each scoring grade are as follows.

[4] = system: diet-induced obesity (DIO) mouse model; experiment: DIO mouse model QD: body composition by DEXA (Example 7-2); type: in vivo, mice; conditions: QD (once daily), 45 nmol/kg/dose
Procedure: (§1) The anti-obesity effects of SEQ ID NO: 1 prepared in Example 1, and SEQ ID NOs: 6 and 7 prepared in Example 4 were analyzed. […] In addition, as an experimental model, a diet-induced obesity (DIO) mouse model fed a high-fat diet for 3 months was used.
To analyze the anti-obesity effect, body composition analysis was conducted using Dual Energy X-ray Absorptiometry (DEXA). The DEXA imaging system (VET DXA iNSiGHT) is for measuring the bone density and body fat of an experimental animal through dual X-ray transmission, and after the completion of experimental material administration, DEXA fat mass and muscle mass were measured for each individual. Accordingly, body weight was categorized into BMC, lean, and fat, and the fat reduction was analyzed to provide a more objective assessment of the anti-obesity effect according to Example 7-1.

[5] = system: C57BL/6 DIO mice; experiment: Diet-induced obesity mouse model: body weight and food intake (Example 3); type: in vivo; conditions: 4 weeks administration, 0.20 mg/kg/dose
[6] = system: diet-induced obesity (DIO) mouse model; experiment: DIO mouse model QD: liver Oil Red O staining (Example 8-4); type: in vivo; conditions: DIO mice, QD (once daily), 45 nmol/kg/dose
Procedure: Finally, to confirm the anti-obesity effect in the liver, liver Oil Red O staining analysis was performed. ORO staining is a staining method used to detect triglycerides (fat) in adipose-related diseases, and used to differentiate fat embolism, liposarcoma, hepatic steatosis, and lipid accumulation disorders. In addition, it can also detect lipid complexes, such as phospholipids. For ORO analysis, liver tissue was processed in 30% sucrose in a refrigerator for 3 days to prepare frozen tissue sections, which were used to prepare OCT-embedded frozen blocks. Cryosections were prepared and stained with ORO.

[7] = system: diet-induced obesity (DIO) mouse model; experiment: DIO mouse model QD: hepatic triglyceride measurement (Example 8-3); type: in vivo; conditions: liver tissue, DIO mice, QD (once daily), 45 nmol/kg/dose
Procedure: To measure hepatic triglyceride levels, triglycerides in liver tissue excised on the necropsy day were analyzed using a measurement kit (Biomax, Cat no. BM-TGR-100).

[8] = system: diet-induced obesity (DIO) mouse model; experiment: DIO mouse model QD: obesity-related factors in plasma (Example 7-4); type: in vivo; conditions: DIO mice, QD (once daily), 45 nmol/kg/dose
Procedure: In addition, after the experiment was completed, blood and serum samples were obtained from each mouse model, and biochemical tests were performed for blood glucose, total cholesterol, high-density lipoprotein (HDL), low-density lipoprotein (LDL), and triglycerides.
as §1
To analyze the anti-obesity effect, mouse plasma was obtained postmortem to measure obesity-related factors in plasma. Here, the analysis method was the same as described in Example 3.

[9] = target: GLP-1R (Homo sapiens, UniProt P43220); experiment: GLP-1 activation: cell-based cAMP assay in GLP-1R/CHO cells
Chain of GLP-1R (P43220 24-463): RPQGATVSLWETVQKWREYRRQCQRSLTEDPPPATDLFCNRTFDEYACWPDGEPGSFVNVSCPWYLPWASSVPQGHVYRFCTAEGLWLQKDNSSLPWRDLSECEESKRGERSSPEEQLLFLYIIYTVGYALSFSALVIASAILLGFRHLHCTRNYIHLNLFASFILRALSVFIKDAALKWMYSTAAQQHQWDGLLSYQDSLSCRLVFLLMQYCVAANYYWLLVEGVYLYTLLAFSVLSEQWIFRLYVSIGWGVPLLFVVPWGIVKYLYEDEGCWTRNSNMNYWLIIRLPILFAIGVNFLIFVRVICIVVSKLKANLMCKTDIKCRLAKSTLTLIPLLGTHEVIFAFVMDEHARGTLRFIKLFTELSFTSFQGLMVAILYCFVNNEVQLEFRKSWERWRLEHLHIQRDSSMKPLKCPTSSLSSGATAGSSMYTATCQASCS

`CCCCCCCCCCCCCCCC(=O)N[C@@H](CCC(=O)NCCCC[C@H](NC(=O)[C@H](CCCCN)NC(=O)[C@H](CC(=O)O)NC(=O)[C@@H](NC(=O)[C@@H](NC(=O)[C@H](CCCCN)NC(=O)[C@@H](NC(=O)[C@H](CCC(N)=O)NC(=O)[C@@H](NC(=O)[C@H](CC(C)C)NC(=O)[C@H](Cc1c[nH]c2ccccc12)NC(=O)[C@H](CC(N)=O)NC(=O)[C@@H](NC(=O)[C@H](Cc1ccccc1)NC(=O)[C@H](CC(=O)O)NC(=O)[C@H](CCCNC(=N)N)NC(=O)[C@H](C)NC(=O)[C@H](C)NC(=O)[C@H](CC(C)C)NC(=O)[C@H](C)NC(=O)[C@H](CC(=O)O)NC(=O)[C@H](CC(C)C)NC(=O)[C@H](Cc1ccc(O)cc1)NC(=O)[C@@H](NC(=O)[C@H](CO)NC(=O)[C@H](CC(C)C)NC(=O)[C@H](CC(=O)O)NC(=O)[C@H](CO)NC(=O)[C@@H](NC(=O)[C@H](Cc1ccccc1)NC(=O)[C@@H](NC(=O)CNC(=O)[C@H](CCC(=O)O)NC(=O)CNC(=O)[C@@H](N)Cc1c[nH]cn1)[C@@H](C)O)[C@@H](C)O)[C@@H](C)O)[C@@H](C)CC)[C@@H](C)CC)[C@@H](C)O)[C@@H](C)CC)[C@@H](C)O)C(=O)O)C(=O)O` [HU020K2FA] (HELM PEPTIDE1{H.G.E.G.T.F.T.S.D.L.S.T.Y.L.D.A.L.A.A.R.D.F.I.N.W.L.I.Q.T.K.I.T.D.K.K}|PEPTIDE2{[CCCCCCCCCCCCCCCC(=O)[*:2]].[gGlu]}$PEPTIDE1,PEPTIDE2,35:R3-2:R2$$$V2.0; N-terminus and C-terminus assumed) was tested, and the “GLP-2 activity Compared to GLP-2” value [1] was ~ 0.02%, the “ALT (U/L)” value [2] was 34.7±5.9 U/L and the “AST (U/L)” value [2] was 68.5±9.2 U/L. The Liver weight ([3]; DIO mice) was 1.58±0.10, the “Hepatic steatosis test (Score 0~3)” value ([3]; H&E, mean of grades 0 to 3, DIO mice) was 0.97±0.47 and the “Fat” value ([4]; DEXA, DIO mice) was 9.6 ± 1.0 g. For the same molecule, the “Lean” value ([4]; DEXA, DIO mice) was 26.5 ± 1.7 g, the “Weight” value ([4]; Table 9, DIO mice) was 37.5 ± 2.6 g and the “Weight (%) (Normalized to DIO vehicle)” value ([4]; Table 9, DIO mice) was 80.3±4.4%. The “Cumulative food intake” value [5] was 55.3 ± 4.0 g, the “Weight” value [5] was 36.6 ± 4.0 g and the “Weight change (%)” value ([5]; compared to day 0) was -19.4±4.7%. For the same molecule, the “ORO positive area (%)” value [6] was 1.41±0.66%, the “Liver TG levels (nmol/µ)” value [7] was 0.81±0.11 nmol/µ and the “HbA1c (%)” value ([8]; blood) was 4.39±0.21%. For the same molecule, the “GLU” value ([8]; plasma) was 209.2 ± 9.3 mg/dL, the “HDL” value ([8]; plasma) was 100.4 ± 9.3 mg/dL and the “LDL” value ([8]; plasma) was 8.9 ± 9.3 mg/dL. For the same molecule, the “TCHO” value ([8]; plasma) was 198.6 ± 24.3 mg/dL, the “TG” value ([8]; plasma) was 75.1 ± 19.4 mg/dL and the “GLP-1 activity Compared to GLP-1 (Exendin-4)” value ([9]; Example 5, relative to Exendin-4) was 23.6%. The “Average (n=4) Relative to GLP-1 (Exendin-4) %” value ([9]; GLP-1R/CHO cells, cAMP, relative to Exendin-4 (Example 2)) was 63.4±29.4%.
